Marks after values point to notes of the source that are not given here.
Assays:
[1] = tested on: sterol 14-reductase (Δ14R); conditions: AY 0.1 μM, cultured rat hepatocytes; cited from earlier work
[2] = tested on: mouse cumulus enclosed oocytes; assay: Induction of resumption of meiosis in mouse cumulus enclosed oocytes exposed to AY9944-A-7; assay type: cell-based
Method: Immature female C57BI/2J B6D2 mice (11-15 g) were stimulated with exogenous gonadotropins (7.5 IU per mouse; Gonadoplex, Leo, Ballerup, Denmark). Forty-eight hours after injection with gonadotropins, the mice were sacrificed and the ovaries removed. Cumulus enclosed oocytes (CEO) were recovered by puncturing individual follicles and collected in a culture medium (a-MEM, Gibco, BRL) supplemented with 3 mg/ml bovine serum albumin, 5 mg/ml human serum albumin, 2 mM L-glutamine, 100 IU/ml penicillin, 100 μg/ml streptomycin and 4 mM hypoxanthine (control medium).
Induction of resumption of meiosis in mouse cumulus enclosed oocytes exposed to an inhibitor of sterol Δ14-reductase (AY9944-A-7) during culture.
Oocytes from 10-15 mice were pooled and randomly divided into the different test groups. The tests were performed using 4-well dishes (Nunclon, Roskilde, Denmark) each well containing 20-50 oocytes in 400 μl culture medium. Each dish had one well serving as control and the three other wells as tests.
All test media were prepared using HX-medium. AY9944-A-7 (AY) was kindly provided by Wyeth-Ayerst, Princeton, N.J., USA. AY has no structural similarities to MAS. Stock solutions of AY9944 in water were stored at −20° C., and was added directly to the HX-medium immediately prior to oocyte culture. AY was used in concentrations from 0.2 to 25 μM.

[3] = tested on: mouse cumulus enclosed oocytes; assay: Resumption of meiosis (GVBD) in mouse cumulus enclosed oocytes exposed to Amphotericin B; assay type: cell-based
Method: Amphotericin B is a medical product used against fungal infections by inhibiting cholesterol biosynthesis. It has no structural similarities to MAS. Its effect on resumption of meiosis was tested on mouse cumulus enclosed oocytes, in vitro. Ovarian stimulation was performed on immature female mice and the cumulus enclosed oocytes (CEO) isolated as described in Example 3.
Cumulus enclosed oocytes were cultured separately in 4-well dishes (Nuncleon, Roskilde, Denmark), 0.4 ml medium in each well containing control medium or medium supplemented with Amphotericin B (Bristol-Myers Squibb) in a 100% humidified atmosphere of 5% CO2 with 95% air at 37° C.
The effect of Amphotericin in concentrations of 0.6 and 1.2 μg/ml was evaluated after 22 hours in culture.
In another series of experiments, i.e. priming of CEO, the culture period with Amphotericin, priming period, varied from 5 min. to 240 min. in test medium with 1.2 μg/ml Amphotericin. After the priming period, the CEO were transferred to control medium and the culture continued for a total of 22 hours.
By the end of the culture period, germinal […] breakdown (GVBD) was scored by examining the oocyte in an inverted microscope. The percentage of oocytes with GVBD per total number of oocytes (% GVBD) was calculated.

[4] = tested on: mouse cumulus enclosed oocytes; assay: Resumption of meiosis (GVBD) of mouse oocytes cultured in vitro with FSH and/or EGF; assay type: cell-based; conditions: EGF 0.5 ng/ml, 22-24 h, HX-medium
Method: Immature female mice (B6D2-F1 strain C57B1/2J) were kept under controlled light and temperature conditions with free access to food and water. […] The percentage of oocytes with GVBD per total number of oocytes (% GVBD) was calculated.

Molecule: Cl.Cl.Clc1ccccc1CNCC1CCC(CNCc2ccccc2Cl)CC1 (stereo not shown) [AY, AY9944-A-7]
- Mode of action on Δ14R [1]: competitive inhibitor
- Oocyte maturation of CEO (FIG. 2) ([2]; AY 0.2 to 25 μM in HX-medium): stimulates oocyte maturation of CEO in a dose-dependent way
- GVBD compared to the controls (FIG. 2) ([2]; AY 5, 10 and 25 μM, p<0.05, p<0.001 and p<0.001): increase GVBD significantly

Molecule: C[C@@H]1[C@H](O)[C@@H](C)/C=C/C=C/C=C/C=C/C=C/C=C/C=C/[C@H](O[C@@H]2O[C@H](C)[C@@H](O)[C@H](N)[C@@H]2O)C[C@@H]2O[C@](O)(C[C@@H](O)C[C@@H](O)[C@H](O)CC[C@@H](O)C[C@@H](O)CC(=O)O[C@H]1C)C[C@H](O)[C@H]2C(=O)O [Amfotericin, Amphotericin B]
- % GVBD ([3]; 0.6 μg/ml, 22 hours in culture, 94 oocytes): 28%
- No. of GVBD ([3]; 0.6 μg/ml, 22 hours in culture, of 94 oocytes): 26
- % GVBD ([3]; 1.2 μg/ml priming 5 minutes, then control medium to 22 hours, 98 oocytes): 21%
- No. of GVBD ([3]; 1.2 μg/ml priming 5 minutes, then control medium to 22 hours, of 98 oocytes): 21
- % GVBD ([3]; 1.2 μg/ml priming 10 minutes, then control medium to 22 hours, 88 oocytes): 29%
- No. of GVBD ([3]; 1.2 μg/ml priming 10 minutes, then control medium to 22 hours, of 88 oocytes): 26
- % GVBD ([3]; 1.2 μg/ml priming 30 minutes, then control medium to 22 hours, 116 oocytes): 36%
- No. of GVBD ([3]; 1.2 μg/ml priming 30 minutes, then control medium to 22 hours, of 116 oocytes): 42
- % GVBD ([3]; 1.2 μg/ml priming 120 minutes, then control medium to 22 hours, 50 oocytes): 50%
- No. of GVBD ([3]; 1.2 μg/ml priming 120 minutes, then control medium to 22 hours, of 50 oocytes): 25
- % GVBD ([3]; 1.2 μg/ml priming 240 minutes, then control medium to 22 hours, 49 oocytes): 69%
- No. of GVBD ([3]; 1.2 μg/ml priming 240 minutes, then control medium to 22 hours, of 49 oocytes): 34
- % GVBD ([3]; 1.2 μg/ml, 22 hours in culture, 121 oocytes): 76%
- No. of GVBD ([3]; 1.2 μg/ml, 22 hours in culture, of 121 oocytes): 92

Molecule: EGF: epidermal growth factor
- % GVBD ([4]; 68 oocytes): 31^c,d %
- No. of GVBD ([4]; of 68 oocytes): 21
